Patent US9150505B2, “Prophylactic or therapeutic agent for diabetes or obesity” (AJINOMOTO CO., INC., priority 2010, dated 2015)

System: NCI-H716 cells
Test: Promotion of GLP-1 secretion in NCI-H716 cells
Assay type: cell-based, human
Conditions: 10 mM, 30 minutes at 37° C., buffer assumed to be 1.0
Experimental: Human appendix-derived cell line NCI-H716 (ATCC No CCL-251) was cultured in a 10% FBS-containing DMEM/HamF-12 medium at 37° C. in the presence of 5% CO2. NCI-H716 cells were seeded in a poly-D-lysine-coated 96-well plate at 100,000 cells/well and cultured for two days. Prior to sample addition, wells were washed with Hepes buffer (20 mM Hepes, 146 mM NaCl, 5 mM KCl, 1.5 mM CaCl2, 1 mM MgSO4, 5.5 mM D-glucose, 0.2% BSA, pH 7.4). Fifty μl of a sample solution dissolved in the same buffer was added and incubated at 37° C. for 30 minutes. The above-described compounds in Example 6 (Compound 1) (10 mM), Example 48 (Compound 2) (5 mM) and Example 14 (Compound 3) (2 mM) were used as the samples. In addition, a Hepes buffer was used as a control. After collecting the supernatant, the cells were precipitated by centrifugation (5,000×g, 1 min.) to collect the supernatant thereof. GLP-1 level in the supernatant was determined as described below according to a quantitative method for GLP-1 that uses GLP-1 receptor gene expression cells.
According to a routine method (Lopez de Maturana R, Willshaw A, Kuntzsch A, Rudolph R, Donnelly D. J Biol Chem. 2003 Mar. 21; 278 (12):10195-200), human GLP-1 receptor gene (Nucleotide sequence 1) was integrated into pcDNA3.1 to prepare human GLP-1 receptor gene expression plasmid hGLP-1R/pcDNA3.1. Moreover, chimeric gene (Nucleotide sequence 2) of human Gα15 gene and human gustducin gene was integrated into pcDNA3.1 to prepare G protein expression plasmid Gα15-gust/pcDNA3.1. […] After 24 hours of cultivation in a CO2 incubator, changes in the fluorescence intensity were determined starting immediately after sample addition according to the Ca^2+ fluorescence indicator FLIPR Calcium 4 Assay Kit protocol (Molecular Devices) using FlexStation (Molecular Devices). Concentration dependency of human GLP-1 (7-36 Amide; Peptide Institute) with respect to the changes in the fluorescence intensity was determined and used as a standard curve for quantitating the sample. […]

SMILES: N[C@@H](CNC(=O)Nc1cc(Cl)cc(S(=O)(=O)O)c1O)C(=O)O [Example 6, (2S)-2-amino-3-{[(5-chloro-2-hydroxy-3-sulfophenyl)carbamoyl]amino}propanoic acid]
- Relative secretion volumes (GLP-1): 2.16
